What all share (type): functional
The test system of one assay is U2OS. Kind of assay: Cytotoxicity against human U2OS cells after 48 hrs by MTT assay.
In a further assay the test system is HT-29. The assay can be described thus: Cytotoxicity against human HT29 cells after 48 hrs by MTT assay. The settings on record: HT-29, 48 h. On the technique in general: Formazan colour is commonly taken as a measure of viable cells.
In another assay the test system is IMR-32. The assay can be described thus: Cytotoxicity against human IMR32 cells after 48 hrs by MTT assay. The settings on record: IMR-32, 48 h.

Square brackets hold non-standard residues; d marks the D form. Peptide text beside a SMILES is read from it. * marks the point of attachment. NMeV = CN[C@H](C(=O)O)C(C)C; X1 = C#CCCC/C(=C\C(=O)*)OC; X2 = C#CCCCC(=O)CC(=O)*

A word on the GI50: it is the concentration giving 50% growth inhibition. Low readings indicate greater sensitivity of the cells, high ones lower sensitivity of the cells. With `C#CCCC/C(=C\C(=O)N(C)[C@H](C(=O)N(C)[C@H](C(=O)N(C)[C@H](C(=O)N(C)[C@H](C(N)=O)C(C)C)C(C)C)C(C)C)C(C)C)OC` [DRAGONAMIDE C] (X1-[NMeV][NMeV][NMeV][NMeV]-NH2), the concentration for 50% growth inhibition (GI50) with U2OS was 56 µM; in the assay with HT-29, 22 µM; with IMR-32, 49 µM.
The corresponding values for `C#CCCCC(=O)CC(=O)N(C)[C@H](C(=O)N(C)[C@H](C(=O)N(C)[C@H](C(=O)N(C)[C@H](C(N)=O)C(C)C)C(C)C)C(C)C)C(C)C` [DRAGONAMIDE D] (X2-[NMeV][NMeV][NMeV][NMeV]-NH2) are 59 µM, 32 µM and 51 µM.

Values taken from ChEMBL document CHEMBL1150236, “Dragonamides C and D, linear lipopeptides from the marine cyanobacterium brown Lyngbya polychroa” (2008).
